Key:
human IDO1 = molecular target: T1, human IDO1 (Homo sapiens, UniProt P14902); assay: IDO inhibition assay in HEK293 cells stably expressing human IDO1 (kynurenine, Ehrlich reagent); format: cell-based; conditions: 20 hours incubation, absorbance at 490 nm, read-out: IDO1 HEK Human IC50
T1 construct: expressed in transfected cells
Protocol: HEK293 cells were transfected with a pCDNA-based mammalian expression vector harboring human IDO1 cDNA (NM 002164.2) by electroporation. They were cultured in medium (DMEM with 10% FBS) containing 1 mg/ml G418 for two weeks. Clones of HEK293 cells that stably expressed human IDO1 protein were selected and expanded for IDO inhibition assay.
The human IDO1/HEK293 cells were seeded at 10,000 cells per 50 μL per well with RPMI/phenol red free media contains 10% FBS in a 384-well black wall clear bottom tissue culture plate (Matrix Technologies LLC) 100 nL of certain concentration of compound was then added to each well using ECHO liquid handling systems. The cells were incubated for 20 hours in 37° C. incubator with 5% CO2.
The compound treatments were stopped by adding trichloroacetic acid (Sigma-Aldrich) to a final concentration at 0.2%. The cell plate was further incubated at 50° C. for 30 minute. The equal volume supernatant (20 μL) and 0.2% (w/v) Ehrlich reagent (4-dimethylaminobenzaldehyde, Sigma-Aldrich) in glacial acetic acid were mixed in a new clear bottom 384-well plate. This plate was then incubated at room temperature for 30 minute. The absorbance at 490 nm was measured on Envision plate reader.
Compound IC50 values were calculated using the counts of 500 nM of a reference standard treatment as one hundred percent inhibition, and counts of no compound but DMSO treatment as zero percent inhibition.

[1] = molecular target: T2, indoleamine 2,3-dioxygenase (IDO) (Homo sapiens, UniProt P14902); assay: HeLa cell-based indoleamine 2,3-dioxygenase (IDO) assay (kynurenine production); conditions: HeLa cells, IFNγ 25 ng/mL, 48 hour incubation, absorbance at 480 nm
T2 construct: host or cells: HeLa cells stimulated with IFNγ (25 ng/mL)
T2 sequence (P14902 whole entry): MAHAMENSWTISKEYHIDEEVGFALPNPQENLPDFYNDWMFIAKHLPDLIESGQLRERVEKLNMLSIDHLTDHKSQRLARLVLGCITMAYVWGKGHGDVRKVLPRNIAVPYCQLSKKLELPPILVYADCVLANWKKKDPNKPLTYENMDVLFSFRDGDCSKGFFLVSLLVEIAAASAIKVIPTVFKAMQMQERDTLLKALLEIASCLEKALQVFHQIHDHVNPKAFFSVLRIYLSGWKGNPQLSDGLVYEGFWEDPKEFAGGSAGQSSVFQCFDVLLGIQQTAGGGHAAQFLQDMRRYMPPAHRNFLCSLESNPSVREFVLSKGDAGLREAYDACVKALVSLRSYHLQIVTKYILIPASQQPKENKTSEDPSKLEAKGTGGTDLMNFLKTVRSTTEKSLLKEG
Protocol: Assessment of inhibitor activity in HeLa cell-based indoleamine 2,3-dioxygenase (IDO) assay:
HeLa (ATCC® CCL-2) cells were obtained from the ATCC® and cultured in Dulbecco's Modified Eagle Medium supplemented with 4.5 g/L glucose, […] (#10-013-CV, Corning), 2 mM L-alanyl-L-glutamine dipeptide (#35050-061, Gibco), 100U/mL penicillin, 100 μg/mL streptomycin (#SV30010, HyClone) and 10% fetal bovine serum (#SH30071.03 HyClone). Cells were maintained in a humidified incubator at 37° C. in 5% CO2.
IDO activity was assessed as a function of kynurenine production as follows: HeLa cells were seeded in a 96-well culture plate at a density of 5,000 cells/well and allowed to equilibrate overnight. After 24 hours, the media was aspirated and replaced with media containing IFNγ (#285-IF/CF, R&D Systems) at a final concentration of 25 ng/mL. A serial dilution of each test compound was added to the cells in a total volume of 200 μL of culture medium. After a further 48 hour incubation, 170 μL of supernatant was transferred from each well to a fresh 96-well plate. 12.1 μL of 6.1N trichloroacetic acid (#T0699, Sigma-Aldrich) was added to each well and mixed, followed by incubation at 65° C. for 20 minutes to hydrolyze N-formylkynurenine, the product of indoleamine 2,3-dioxygenase, to kynurenine. The reaction mixture was then centrifuged for 10 mins at 500×g to sediment the precipitate. 100 μL of the supernatant was transferred from each well to afresh 96-well plate. 100 μl of 2% (w/v) p-dimethylaminobenzaldehyde (#15647-7, Sigma-Aldrich) in acetic acid (#A6283, Sigma-Aldrich) was added to each well mixed and incubated at room temperature for 20 mins. Kynurenine concentrations were determined by measuring absorbance at 480 nm and calibrating against an L-kynurenine (#K8625, Sigma-Aldrich) standard curve using a SPECTRAMAX® M2e microplate reader (Molecular Devices). The percentage activity at each inhibitor concentration was determined and IC50 values assessed using nonlinear regression.

T1 sequence (P14902 whole entry): as above

Molecule | IC50 (human IDO1) [nM] | IC50 [1] [nM]
C[C@@H](Nc1nc2ccc(Cl)cc2o1)[C@H]1CC[C@@H](c2ccnc3ccc(F)cc32)CC1 [Example 11, 6-chloro-N-((R)-1-((cis)-4-(6-fluoroquinolin-4-yl)cyclohexyl)ethyl)benzo[d]oxazol-2-amine] | 40.9 | 40.9
CCC(c1nc2ccc(Cl)cc2[nH]1)[C@H]1CC[C@H](Oc2ccnc3ccccc23)CC1 (single isomer, unassigned) [Example 13-2, 4-(((trans)-4-(1-(6-chloro-1H-benzo[d]imidazol-2-yl)propyl)cyclohexyl)oxy)quinoline] | 3.4 | 8.9
C[C@@H](c1nc2ncc(Cl)cc2[nH]1)[C@H]1CC[C@@H](c2ccnc3ccc(F)cc32)CC1 [Example 6, 4-((cis)-4-((R)-1-(6-chloro-1H-imidazo[4,5-b]pyridin-2-yl)ethyl)cyclohexyl)-6-fluoroquinoline] | 7 | 4.5
C[C@@H](Nc1nc2ccccc2[nH]1)[C@H]1CC[C@@H](c2ccnc3ccc(F)cc32)CC1 [Example 12, N-((R)-1-((cis)-4-(6-fluoroquinolin-4-yl)cyclohexyl)ethyl)-1H-benzo[d]imidazol-2-amine] | 139 | –
CCC(c1nc2ccc(Cl)cc2[nH]1)[C@H]1CC[C@H](Oc2ccnc3ccccc23)CC1 (single isomer, unassigned) [Example 13-1, 4-(((trans)-4-(1-(6-chloro-1H-benzo[d]imidazol-2-yl)propyl)cyclohexyl)oxy)quinoline] | 4.1 | 5.7
C[C@@H](Nc1nc2ccc(Cl)cc2s1)[C@H]1CC[C@@H](c2ccnc3ccc(F)cc32)CC1 [Example 8, 6-chloro-N—((R)-1-((cis)-4-(6-fluoroquinolin-4-yl)cyclohexyl)ethyl)benzo[d]thiazol-2-amine] | 730 | –
C[C@@H](c1nc2ncccc2[nH]1)[C@H]1CC[C@@H](c2ccnc3ccc(F)cc32)CC1 [Example 7, 4-((cis)-4-((R)-1-(1H-imidazo[4,5-b]pyridin-2-yl)ethyl)cyclohexyl)-6-fluoroquinoline] | 23.2 | 30.1
C[C@@H](Nc1nc2ccccc2s1)[C@H]1CC[C@@H](c2ccnc3ccc(F)cc32)CC1 [Example 10] | 194 | –
CCC(c1nc2ccc(Cl)cc2[nH]1)[C@H]1CC[C@@H](Oc2ccnc3ccccc23)CC1 (stereo partly drawn) [Example 14, 4-(((cis)-4-(1-(6-chloro-1H-benzo[d]imidazol-2-yl)propyl)cyclohexyl)oxy)quinoline] | 322 | –
CCC(c1nc2ccc(Cl)cc2[nH]1)[C@H]1CC[C@@H](Oc2ccnc3ccccc23)CC1 (stereo partly shown) [Example 51, 4-(((1s,4s)-4-(1-(6-chloro-1H-benzo[d]imidazol-2-yl)propyl)cyclohexyl)oxy)quinoline] | 1060 | –
C[C@@H](c1nc2cc3c(cc2[nH]1)OCO3)[C@H]1CC[C@@H](c2ccnc3ccc(F)cc32)CC1 [Example 4, 6-((R)-1-((cis)-4-(6-fluoroquinolin-4-yl)cyclohexyl)ethyl)-5H-[1,3]dioxolo[4′,5′:4,5]benzo[1,2-d]imidazole] | 1.5 | –
COc1ccc2nc(N[C@H](C)[C@H]3CC[C@@H](c4ccnc5ccc(F)cc54)CC3)[nH]c2c1 [Example 9, N-((R)-1-((cis)-4-(6-fluoroquinolin-4-yl)cyclohexyl)ethyl)-6-methoxy-1H-benzo[d]imidazol-2-amine] | 263 | –
(±)-Cis and trans-6-chloro-2-(1-(4-(2-(trifluoromethyl)pyridin-4-yl)cyclohexyl)ethyl)-1H-benzo[d]imidazole [Example 38] | 62.1 | –
C[C@@H](c1nc2cnccc2[nH]1)[C@H]1CC[C@@H](c2ccnc3ccc(F)cc32)CC1 [Example 5, 4-((cis)-4-((R)-1-(1H-imidazo[4,5-c]pyridin-2-yl)ethyl)cyclohexyl)-6-fluoroquinoline] | 105 | –
CCC(c1nc2ccc(Cl)cc2[nH]1)[C@H]1CC[C@@H](Oc2ccnc3ccccc23)CC1 (stereo partly shown) [Example 52, 4-(((1s,4s)-4-(1-(6-chloro-1H-benzo[d]imidazol-2-yl)propyl)cyclohexyl)oxy)quinoline] | 697 | –
CC[C@H](c1nc2ccc(Cl)cc2[nH]1)[C@H]1CC[C@@H](c2ccnc3ccc(F)cc32)CC1 (single isomer, unassigned) [Example 15-1, 4-(4-(1-(6-chloro-1H-benzo[d]imidazol-2-yl)propyl)cyclohexyl)-6-fluoroquinoline] | 40.6 | –
(+/−)-Cis and trans-6-chloro-2-(1-(4-(2-(trifluoromethyl)pyridin-4-yl)cyclohexyl)propyl)-1H-benzo[d]imidazole [Example 36] | 26.1 | –
CC(c1nc2ccc(Cl)cc2[nH]1)C1CCC(c2ccnc3ccccc23)CC1 (single isomer, unassigned) [Example 16-1, (±)-4-(4-(1-(6-chloro-1H-benzo[d]imidazol-2-yl)ethyl)cyclohexyl)quinoline] | 54.1 | –
C[C@H](c1nc2ccc(Cl)cc2[nH]1)[C@H]1CC[C@@H](c2ccnc(C(F)(F)F)c2)CC1 (single isomer, unassigned) [Example 39-1, 6-chloro-2-(1-(4-(2-(trifluoromethyl)pyridin-4-yl)cyclohexyl)ethyl)-1H-benzo[d]imidazole] | – | 170
COC(=O)c1ccc2[nH]c([C@H](C)[C@H]3CC[C@@H](c4ccnc5ccc(F)cc54)CC3)nc2c1 [Example 50, methyl 2-((R)-1-((1s,4S)-4-(6-fluoroquinolin-4-yl)cyclohexyl)ethyl)-1H-benzo[d]imidazole-5-carboxylate] | – | 2.1
CC[C@H](c1nc2ccc(Cl)cc2[nH]1)[C@H]1CC[C@@H](c2ccnc3ccc(F)cc32)CC1 (single isomer, unassigned) [Example 15-2, 4-(4-(1-(6-chloro-1H-benzo[d]imidazol-2-yl)propyl)cyclohexyl)-6-fluoroquinoline] | 110 | –
CCC(c1nc2ccc(Cl)cc2[nH]1)[C@H]1CC[C@H](Oc2ccnc3ccccc23)CC1 (mixture of isomers) [Example 13, 4-(((trans)-4-(1-(6-chloro-1H-benzo[d]imidazol-2-yl)propyl)cyclohexyl)oxy)quinoline] | 3.4 | –
COCC(c1nc2ccc(Cl)cc2[nH]1)[C@H]1CC[C@@H](c2ccnc3ccc(F)cc32)CC1 (mixture of isomers) [Example 19, (±)-4-((cis)-4-(1-(6-chloro-1H-benzo[d]imidazol-2-yl)-2-methoxyethyl)cyclohexyl)-6-fluoroquinoline] | – | 3.8
CC(c1nc2ccc(Cl)cc2[nH]1)C1CCC(c2ccnc3ncccc23)CC1 (mixture of isomers) [Example 34, (±)-Cis and trans-(4-(1-(6-chloro-1H-benzo[d]imidazol-2-yl)ethyl)cyclohexyl)-1,8-naphthyridine] | – | 68.1
CCC(c1nc2ncc(Cl)cc2[nH]1)[C@H]1CC[C@H](Oc2ccnc3ccccc23)CC1 (single isomer, unassigned) [Example 20-2] | – | 4.5
Cc1ccc2nc([C@H](C)[C@H]3CC[C@@H](c4ccnc5ccc(F)cc54)CC3)cn2n1 [Example 30, 6-fluoro-4-((cis)-4-((R)-1-(6-methylimidazo[1,2-b]pyridazin-2-yl)ethyl)cyclohexyl)quinoline] | – | 96.6
